Consider 2 compounds from patent US20240270758A1, “PYRIDINO-OR PYRIMIDO-CYCLIC COMPOUND, PREPARATION METHOD THEREFOR AND MEDICAL USE THEREOF” (Genfleet Therapeutics (Shanghai) Inc., priority 2021, published 2024).

Molecules are shown by their SMILES. pIC50: −log10 of the molar value.

Data set [1] has as its system p-ERK in AGS cells (KRAS^G12D mutation). The data set is described as follows: Cell p-ERK detection assay. In kind it is cell-based, human. The following applies: Homo sapiens, AGS, 3 h, 3 h incubation, HTRF. In outline: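 AGS cells (KRAS G12D, ~20,000/well in F12K+10% FBS) treated next day with compound at 3.16-fold dilutions, 0.1% DMSO final, for 3 h. Lysates assayed for ERK phospho-T202/Y204 by HTRF after 4 h; inhibition vs DMSO and blank, IC50 from four-parameter fit.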

The test system of data set [2] is AGS cells (KRAS^G12D mutation). The data set is described as follows: Cell proliferation inhibition assay (3D, CellTiter-Glo), AGS. In kind it is cell-based, human. The conditions noted are these: Homo sapiens, AGS, 120 h, 3D cell model, 5 days. The method in brief: (§1)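 3D spheroids of AsPC-1 (800 cells/well, RPMI-1640) or AGS (400 cells/well, F-12K), 10% FBS, seeded overnight, then exposed 5 days to 3.16-fold compound dilutions (0.1% DMSO final). CellTiter-Glo 3D luminescence gives inhibition relative to DMSO and medium blanks; IC50 from four-parameter fit.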
In general terms: In ATP-based viability assays light output follows the ATP content of the culture.

Data set [3] relates to AsPC-1 cells (KRAS^G12D mutation). The data set is described as follows: Cell proliferation inhibition assay (3D, CellTiter-Glo), AsPC-1. Type of data set: cell-based, human. The conditions noted are these: Homo sapiens, ASPC1, 120 h, 3D cell model, 5 days. The method in brief: as §1
Data set [4] in a line: Mice pharmacokinetic evaluation experiment. The conditions noted are these: male, ICR, mouse, mice plasma; for Vd / half-life: IV 1 mg/kg; for AUC / Cmax: PO 100 mg/kg. Type of data set: in vivo. The source says: Purpose of the experiment: male ICR mice were used as test animals to determine the drug concentration in plasma at different time points after intravenous and intragastric administration of test compounds by LC/MS/MS method. The pharmacokinetic behavior of the test compound in mice was studied to evaluate its pharmacokinetic characteristics.
Experimental protocol: laboratory animals: twelve healthy adult male ICR mice, weighing about 30 g, were randomly divided into two groups, 6 mice in IV group and 6 mice in PO group, N=3/time point, with semi-continuous blood collection. Animals were purchased from Vital River Laboratory Animal Technology Co., Ltd.
Drug preparation: IV group: taking 10 mL sample solution as an example, weighing 2 mg sample, followed by adding 0.5 mL DMSO, […], then adding […] HP-β-CD, finally dilute to 10 mL with water, stirring and ultrasound to reach 0.2 mg/mL clear state. PO group: weighing an appropriate amount of samples and preparing them according to the solvent ratio of the IV group, and evenly reaching the state of 10 mg/mL after stirring and ultrasound. Administration: after fasting for one night, intravenous administration was performed in the IV group, with an administration volume of 5 mL/kg and a dose of 1 mg/kg: the PO group was administered intragastrically a dose volume of 10 mL/kg and a dose of 100 mg/kg.
Experimental operation: after the test compounds were administered to the male ICR mice in the intravenous injection group and the intragastric administration group, the blood 110 ul were collected at time points of 0.25, 0.5, 1, 2, 4, 7, and 24 h, and stored in a commercial anticoagulant tube pre-filled with K2EDTA. The plasma was separated by centrifugation for 15 min and stored at −70° C. Animals were fed 4 h after administration. The plasma levels of test compounds following intravenous and intragastric administration in mice were determined by LC/MS/MS method. The linear range of the method was 1-3000 ng/ml; Plasma samples were analyzed after treatment with acetonitrile precipitated protein.

The pIC50 is the IC50 on a negative log10 scale, so that one unit is a factor of ten. The low end stands for a large IC50, the high end for a small IC50. By Vd is commonly meant the apparent volume that relates the amount in the body to the concentration in plasma or blood. Higher therefore signals extensive tissue distribution. For orientation: half-life means the time needed for the level to fall by half in the phase considered. A high value points to slow loss. A word on the AUC: it is the area under the concentration-time curve, a measure of exposure. High values mean more exposure, low ones less exposure. What is called Cmax is the maximum level reached in the sampled fluid or tissue. `C#Cc1c(F)ccc2cc(O)cc(-c3ncc4c(N5C[C@H]6CC[C@@H](C5)N6)nc(OCC56CC(=C)CN5CC(=C)C6)nc4c3F)c12` [Example Z194, 4-(4-((1R,5S)-3,8-diazabicyclo[3.2.1]octan-3-yl)-2-((2,6-dimethylenetetrahydro-1H-pyrrolizin-7a(5H)-yl)methoxy)-8-fluoropyrido[4,3-d]pyrimidin-7-yl)-5-ethynyl-6-fluoronaphthalen-2-ol] showed a pIC50 in data set [1] of 9.16. The pIC50 in data set [2] is 8.85. The compound further gave a pIC50 in data set [3] of 8.34. In data set [4], this compound gave a Vd of 16.9 L/kg, a half-life of 11.2 h, an AUC of 2840 ng·h/mL and a Cmax of 560 ng/mL.
In data set [4], `C#Cc1c(F)ccc2cc(O)cc(-c3ncc4c(N5CC6CCC(C5)N6)nc(OC[C@@]56CCCN5C[C@H](F)C6)nc4c3F)c12` [MRTX1133, reference compound] showed a Vd of 14.1 L/kg, a half-life of 5.15 h, an AUC of 745 ng·h/mL and a Cmax of 279 ng/mL.
